Experimental findings from ChEMBL document CHEMBL1144646, “Imidazole moiety replacements in the 3-(1H-benzo[d]imidazol-2-yl)pyridin-2(1H)-one inhibitors of insulin-like growth factor receptor-1 (IGF-1R) to improve cytochrome P450 profile” (Bioorg Med Chem Lett, 2007) are described below.

One may read the IC50 as the concentration needed to halve the response being measured. The low end stands for greater potency, the high end for weaker potency.

One assay concerns the target Cytochrome P450 2C19 (Homo sapiens, UniProt P33261). Nature of the assay: Inhibition of CYP2C19 in microsomes. Type of assay: ADME.
Another assay addresses Cytochrome P450 3A4 (Homo sapiens, UniProt P08684). Put plainly: Inhibition of CYP3A4 in microsomes.
A further assay addresses T1, Cytochrome P450 1A2 (Homo sapiens, UniProt P05177).
T1 sequence (P05177 whole entry): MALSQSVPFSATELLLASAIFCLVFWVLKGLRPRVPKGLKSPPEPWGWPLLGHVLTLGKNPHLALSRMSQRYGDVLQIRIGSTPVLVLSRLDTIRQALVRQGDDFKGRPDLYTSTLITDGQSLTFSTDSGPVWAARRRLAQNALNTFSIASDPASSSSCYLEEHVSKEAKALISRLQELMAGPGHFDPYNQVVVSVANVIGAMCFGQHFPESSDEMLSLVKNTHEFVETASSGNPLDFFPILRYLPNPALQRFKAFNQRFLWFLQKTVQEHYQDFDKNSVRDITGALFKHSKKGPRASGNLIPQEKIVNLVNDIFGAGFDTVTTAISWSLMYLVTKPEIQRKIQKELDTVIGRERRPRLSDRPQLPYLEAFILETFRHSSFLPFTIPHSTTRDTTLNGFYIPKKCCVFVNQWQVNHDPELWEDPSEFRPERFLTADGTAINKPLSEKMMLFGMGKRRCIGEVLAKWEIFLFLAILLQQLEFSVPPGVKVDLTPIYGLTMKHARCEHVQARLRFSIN
Put plainly: Inhibition of CYP1A2 in microsomes. Type of assay: ADME.

For another assay, the target named is Cytochrome P450 2C9 (Homo sapiens, UniProt P11712). Nature of the assay: Inhibition of CYP2C9 in microsomes. It counts as ADME.
The target in a further assay is Cytochrome P450 2D6 (Homo sapiens, UniProt P10635). Put plainly: Inhibition of CYP2D6 in microsomes. It counts as ADME.

Where only a bound is given, the exact number is not on record here.

Cytochrome P450 2C19, sequence (P33261 whole entry): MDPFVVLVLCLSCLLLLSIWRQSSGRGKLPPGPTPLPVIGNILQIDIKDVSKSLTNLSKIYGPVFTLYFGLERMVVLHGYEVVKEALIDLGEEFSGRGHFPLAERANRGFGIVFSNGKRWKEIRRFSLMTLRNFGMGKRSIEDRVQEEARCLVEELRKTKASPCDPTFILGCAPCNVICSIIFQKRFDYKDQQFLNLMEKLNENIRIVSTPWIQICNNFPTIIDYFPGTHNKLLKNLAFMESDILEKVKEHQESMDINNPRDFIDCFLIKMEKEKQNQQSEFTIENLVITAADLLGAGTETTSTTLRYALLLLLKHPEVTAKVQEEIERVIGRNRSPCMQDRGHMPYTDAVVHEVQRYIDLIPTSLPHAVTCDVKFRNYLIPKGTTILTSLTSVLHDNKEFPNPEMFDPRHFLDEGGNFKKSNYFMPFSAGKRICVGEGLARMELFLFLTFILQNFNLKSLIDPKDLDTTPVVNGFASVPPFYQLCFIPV
Cytochrome P450 3A4, sequence (P08684 whole entry): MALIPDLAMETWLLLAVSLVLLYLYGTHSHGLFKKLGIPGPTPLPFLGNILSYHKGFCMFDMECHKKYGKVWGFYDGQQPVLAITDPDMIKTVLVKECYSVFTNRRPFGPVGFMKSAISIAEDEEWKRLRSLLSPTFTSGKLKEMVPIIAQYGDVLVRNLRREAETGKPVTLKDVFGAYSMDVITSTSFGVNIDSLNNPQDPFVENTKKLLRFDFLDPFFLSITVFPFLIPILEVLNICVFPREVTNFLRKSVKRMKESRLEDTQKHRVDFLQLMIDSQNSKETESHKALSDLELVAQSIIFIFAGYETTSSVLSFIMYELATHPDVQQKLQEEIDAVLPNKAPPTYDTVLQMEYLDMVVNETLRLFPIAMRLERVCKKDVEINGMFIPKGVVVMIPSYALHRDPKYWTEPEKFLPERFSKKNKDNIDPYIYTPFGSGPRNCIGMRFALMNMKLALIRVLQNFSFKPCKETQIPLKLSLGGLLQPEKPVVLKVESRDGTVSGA
Cytochrome P450 2C9, sequence (P11712 whole entry): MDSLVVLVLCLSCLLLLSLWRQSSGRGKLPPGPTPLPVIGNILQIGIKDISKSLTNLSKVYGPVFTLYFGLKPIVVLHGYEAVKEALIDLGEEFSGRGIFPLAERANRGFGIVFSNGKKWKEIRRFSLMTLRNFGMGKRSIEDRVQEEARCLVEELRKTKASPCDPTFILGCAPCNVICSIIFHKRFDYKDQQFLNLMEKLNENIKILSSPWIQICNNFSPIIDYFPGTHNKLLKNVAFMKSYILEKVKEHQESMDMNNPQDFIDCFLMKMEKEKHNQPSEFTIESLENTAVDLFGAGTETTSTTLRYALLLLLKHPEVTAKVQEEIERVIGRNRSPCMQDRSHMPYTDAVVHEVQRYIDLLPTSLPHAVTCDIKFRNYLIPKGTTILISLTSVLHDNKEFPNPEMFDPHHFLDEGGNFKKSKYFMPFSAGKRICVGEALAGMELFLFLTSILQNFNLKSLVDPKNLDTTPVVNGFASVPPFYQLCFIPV
Cytochrome P450 2D6, sequence (P10635 whole entry): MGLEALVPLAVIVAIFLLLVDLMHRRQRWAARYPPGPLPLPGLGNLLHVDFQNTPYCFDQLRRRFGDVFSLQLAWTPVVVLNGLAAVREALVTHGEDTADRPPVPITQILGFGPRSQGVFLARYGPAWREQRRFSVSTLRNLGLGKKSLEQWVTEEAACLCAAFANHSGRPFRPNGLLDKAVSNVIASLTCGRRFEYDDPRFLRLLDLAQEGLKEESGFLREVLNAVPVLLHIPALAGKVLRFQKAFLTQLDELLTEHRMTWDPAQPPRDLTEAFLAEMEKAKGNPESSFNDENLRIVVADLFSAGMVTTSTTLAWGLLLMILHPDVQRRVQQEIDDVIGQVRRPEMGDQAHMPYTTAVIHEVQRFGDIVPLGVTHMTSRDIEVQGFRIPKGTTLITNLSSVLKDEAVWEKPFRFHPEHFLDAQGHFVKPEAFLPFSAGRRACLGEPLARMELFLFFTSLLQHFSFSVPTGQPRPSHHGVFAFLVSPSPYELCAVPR

Regarding `Cc1cc(-c2ccccc2)cc2[nH]c(-c3c(N[C@H](CO)Cc4ccccc4)cc[nH]c3=O)nc12`, the IC50 on Cytochrome P450 2C19 amounted to 0.53 µM; on Cytochrome P450 3A4, 3.6 µM; on Cytochrome P450 1A2, 0.58 µM; at Cytochrome P450 2C9, 2.3 µM.
The corresponding values for `Cc1cc(-c2ccc(F)cc2)cc2[nH]c(-c3c(N[C@H](CO)Cc4ccccc4)cc[nH]c3=O)nc12` are 1 µM, 6.3 µM, 3.2 µM and 4 µM.
The corresponding values for `CNC(=O)c1cc(C)c2nc(-c3c(NCC(O)c4cccc(Cl)c4)cc[nH]c3=O)[nH]c2c1` (configuration not stated) are 2.1 µM, 3.7 µM, 21 µM and 2.9 µM.
For the compound `Cc1cc(C2=NCCCN2)cc2[nH]c(-c3c(NCC(O)c4cccc(Cl)c4)cc[nH]c3=O)nc12` (configuration not stated), the IC50 against Cytochrome P450 2C19 is 8.5 µM; on Cytochrome P450 3A4, 16 µM; at Cytochrome P450 1A2, 20 µM; at Cytochrome P450 2C9 it was 100 µM.
The matching figures for `CNC(=N)c1cc(C)c2nc(-c3c(NCC(O)c4cccc(Cl)c4)cc[nH]c3=O)[nH]c2c1` (configuration not stated): 3.9 µM, 15 µM, 25 µM and 76 µM.
Regarding `COc1ccc(-c2cc(C)c3nc(-c4c(N[C@H](CO)Cc5ccccc5)cc[nH]c4=O)[nH]c3c2)cc1`, the IC50 at Cytochrome P450 2C19 is 2.2 µM; against Cytochrome P450 3A4 it was 6.8 µM; at Cytochrome P450 1A2 it was 12 µM; on Cytochrome P450 2C9, 11 µM.
The corresponding values for `Cc1cc(C2=NC(C)(C)CN2)cc2[nH]c(-c3c(NCC(O)c4cccc(Cl)c4)cc[nH]c3=O)nc12` (configuration not stated) are 5.1 µM, 13 µM, 11 µM and 47 µM.
The corresponding values for `Cc1cc(-n2ccnc2)cc2[nH]c(-c3c(NCC(O)c4cccc(Cl)c4)cc[nH]c3=O)nc12` (configuration not stated) are under 0.04 µM, under 0.046 µM, under 0.04 µM and under 0.04 µM.
The matching figures for `Cc1cc(Br)cc2[nH]c(-c3c(N[C@H](CO)Cc4ccccc4)cc[nH]c3=O)nc12`: 0.32 µM, 3.1 µM, 0.052 µM and 0.72 µM.
As to `Cc1cc(-n2ccnc2)cc2nc(-c3c(NCc4ccccn4)cc[nH]c3=O)[nH]c12`, the IC50 against Cytochrome P450 2C19 is 0.1 µM; on Cytochrome P450 2D6 it was 5.7 µM; at Cytochrome P450 3A4 it was 0.08 µM; at Cytochrome P450 1A2 it was under 0.03 µM; against Cytochrome P450 2C9, under 0.03 µM.
For the compound `Cc1cccc2[nH]c(-c3c(NCC(O)c4cccc(Cl)c4)cc[nH]c3=O)nc12` (configuration not stated), the IC50 worked out at 0.26 µM on Cytochrome P450 2C19, 0.71 µM at Cytochrome P450 3A4, 0.38 µM on Cytochrome P450 1A2 and 1.5 µM against Cytochrome P450 2C9.
Consider `Cc1cc(-n2ccnc2)cc2[nH]c(-c3c(N[C@H](CO)Cc4ccccc4)cc[nH]c3=O)nc12`, for which the half-maximal inhibitory concentration (IC50) against Cytochrome P450 2C19 is under 0.04 µM; against Cytochrome P450 2D6, 0.56 µM; on Cytochrome P450 3A4 it was 0.06 µM; against Cytochrome P450 1A2 it was under 0.04 µM; at Cytochrome P450 2C9, under 0.04 µM.
On to `Cc1cc(C(=O)NC2CCCCC2)cc2[nH]c(-c3c(NCC(O)c4cccc(Cl)c4)cc[nH]c3=O)nc12` (configuration not stated), for which the IC50 against Cytochrome P450 2C19 was 1.3 µM; at Cytochrome P450 3A4, 11 µM; against Cytochrome P450 1A2 it was 59 µM; at Cytochrome P450 2C9 it was 6.6 µM.
The matching figures for `Cc1cc(C(=O)NC2CC2)cc2[nH]c(-c3c(NCC(O)c4cccc(Cl)c4)cc[nH]c3=O)nc12` (configuration not stated): 3.5 µM, 10 µM, 93 µM and 8.1 µM.
The matching figures for `Cc1cc(C(=O)N(C)C)cc2[nH]c(-c3c(NCC(O)c4cccc(Cl)c4)cc[nH]c3=O)nc12` (configuration not stated): 1.7 µM, 2.2 µM, 15 µM and 2.8 µM.
The corresponding values for `Cc1cc(C(=O)NC2CCCC2)cc2[nH]c(-c3c(NCC(O)c4cccc(Cl)c4)cc[nH]c3=O)nc12` (configuration not stated) are 0.48 µM, 1.6 µM, 9.8 µM and 3.5 µM.
As for `Cc1cc(C2=NC(C)CN2)cc2[nH]c(-c3c(NCC(O)c4cccc(Cl)c4)cc[nH]c3=O)nc12` (configuration not stated), the results for the IC50 on Cytochrome P450 2C19, on Cytochrome P450 1A2 and against Cytochrome P450 2C9 were 4.7 µM, 10 µM and 67 µM, respectively.
Regarding `Cc1cc(C2=NCCN2C)cc2[nH]c(-c3c(NCC(O)c4cccc(Cl)c4)cc[nH]c3=O)nc12` (configuration not stated), the IC50 against Cytochrome P450 2C19 was determined as 17 µM; at Cytochrome P450 3A4, 35 µM; against Cytochrome P450 1A2, 53 µM; against Cytochrome P450 2C9 it was 91 µM.
The matching figures for `Cc1c[nH]c(-c2cc(C)c3[nH]c(-c4c(NCC(O)c5cccc(Cl)c5)cc[nH]c4=O)nc3c2)n1` (configuration not stated): 2 µM, 0.36 µM, 5.8 µM and 7.8 µM.
